Data on seven compounds can be found in ChEMBL document CHEMBL4393682, “Development of M10, myricetin-3-O-β-d-lactose sodium salt, a derivative of myricetin as a potent agent of anti-chronic colonic inflammation” (Eur J Med Chem, 2019).

As a reminder, the solubility is the dissolved amount per volume that the medium holds. By half-life is commonly meant how long it takes for the measured level to halve. Higher therefore signals slow decline. In general, LD50 refers to the dose at which mortality reaches 50%. A high value points to lower toxicity.

Data set [1] in a line: Aqueous solubility of compound after 24 hrs by HPLC analysis. The format is physicochemical. The following applies: for solubility: buffer, 24 h; for solubility at 24 h: aqueous.
Data set [2] deals with Mus musculus. As to the kind of experiment: Anti-inflammatory activity against DSS-induced ulcerative colitis C57BL/6 mouse model assessed as increase in colon length administered via gavage once a day for 14 consecutive days starting from second day post DSS challenge. In kind it is functional, organism-based.
Data set [3] is described as follows: Metabolic stability in Wistar rat plasma assessed as compound remaining at 3 uM after 20 mins by LC-MS/MS analysis relative to control. In kind it is ADME, cell-free. The settings on record: read-out: Stability.
A short description of data set [4]: Metabolic stability in Wistar rat plasma assessed as compound remaining at 3 uM after 5 mins by LC-MS/MS analysis relative to control. The format is ADME, cell-free. The following applies: read-out: Stability.
Data set [5] can be described thus: Half life in Wistar rat plasma at 3 uM measured up to 180 mins by LC-MS/MS analysis. The format is ADME, cell-free.
Data set [6] can be described thus: Metabolic stability in Wistar rat liver microsomes assessed as compound remaining at 1 uM after 90 mins by LC-MS/MS analysis relative to control. The format is ADME, Microsome. The settings on record: read-out: Stability. For orientation: Liver microsomes are vesicles of endoplasmic reticulum, rich in cytochrome P450 enzymes.
Data set [7] can be described thus: Metabolic stability in Wistar rat liver microsomes assessed as compound remaining at 1 uM after 5 mins by LC-MS/MS analysis relative to control. The format is ADME, Microsome. The following applies: read-out: Stability.
Data set [8] is described as follows: Elimination rate constant in Wistar rat liver microsomes at 1 uM measured up to 120 mins by LC-MS/MS analysis. The format is ADME, Microsome.
A short description of data set [9]: Metabolic stability in Wistar rat plasma assessed as compound remaining at 3 uM after 120 mins by LC-MS/MS analysis relative to control. The following applies: read-out: Stability. The format is ADME, cell-free.
Data set [10] can be described thus: Metabolic stability in Wistar rat plasma assessed as compound remaining at 3 uM after 180 mins by LC-MS/MS analysis relative to control. In kind it is ADME, cell-free. The following applies: read-out: Stability.
Data set [11] is described as follows: Elimination rate constant in Wistar rat plasma at 3 uM measured up to 180 mins by LC-MS/MS analysis. The format is ADME, cell-free.
The nature of data set [12]: Metabolic stability in Wistar rat liver microsomes assessed as compound remaining at 1 uM after 120 mins by LC-MS/MS analysis relative to control. The format is ADME, Microsome. The settings on record: read-out: Stability.
A short description of data set [13]: Metabolic stability in Wistar rat liver microsomes assessed as compound remaining at 1 uM after 10 mins by LC-MS/MS analysis relative to control. The following applies: read-out: Stability. In kind it is ADME, Microsome.
A short description of data set [14]: Metabolic stability in Wistar rat plasma assessed as compound remaining at 3 uM after 90 mins by LC-MS/MS analysis relative to control. The format is ADME, cell-free. The settings on record: read-out: Stability.
The test system of data set [15] is Mus musculus. As to the kind of experiment: Anti-inflammatory activity against DSS-induced ulcerative colitis C57BL/6 mouse model assessed as colon length at 100 mg/kg, ig administered via gavage once a day for 14 consecutive days starting from second day post DSS challenge (reference value: 5.93 +/- 0.52 cm). In kind it is functional.
A short description of data set [16]: Metabolic stability in Wistar rat plasma assessed as compound remaining at 3 uM after 10 mins by LC-MS/MS analysis relative to control. In kind it is ADME, cell-free. The settings on record: read-out: Stability.
Data set [17] in a line: Metabolic stability in Wistar rat liver microsomes assessed as compound remaining at 1 uM after 40 mins by LC-MS/MS analysis relative to control. The format is ADME, Microsome. The settings on record: read-out: Stability.
A short description of data set [18]: Metabolic stability in Wistar rat plasma assessed as compound remaining at 3 uM after 60 mins by LC-MS/MS analysis relative to control. In kind it is ADME, cell-free. The following applies: read-out: Stability.
The nature of data set [19]: Metabolic stability in Wistar rat liver microsomes assessed as compound remaining at 1 uM after 20 mins by LC-MS/MS analysis relative to control. The format is ADME, Microsome. The settings on record: read-out: Stability.
Data set [20] in a line: Metabolic stability in Wistar rat liver microsomes assessed as compound remaining at 1 uM after 60 mins by LC-MS/MS analysis relative to control. The format is ADME, Microsome. The following applies: read-out: Stability.
A short description of data set [21]: Metabolic stability in Wistar rat liver microsomes assessed as compound remaining at 1 uM after 30 mins by LC-MS/MS analysis relative to control. The following applies: read-out: Stability. In kind it is ADME, Microsome.
Data set [22] is described as follows: Half life in Wistar rat liver microsomes at 1 uM measured up to 120 mins by LC-MS/MS analysis. The settings on record: 2 h. The format is ADME, Microsome.
Data set [23] is described as follows: Metabolic stability in Wistar rat plasma assessed as compound remaining at 3 uM after 40 mins by LC-MS/MS analysis relative to control. The format is ADME, cell-free. The settings on record: read-out: Stability.
For data set [24], the system named is Mus musculus. The data set is described as follows: Anti-inflammatory activity against DSS-induced ulcerative colitis C57BL/6 mouse model assessed as decrease in inflammatory score at 50 mg/kg, ig administered via gavage once a day for 14 consecutive days starting from second day post DSS challenge. In kind it is functional, organism-based.
Data set [25] relates to Mus musculus. As to the kind of experiment: Anti-inflammatory activity against DSS-induced ulcerative colitis C57BL/6 mouse model assessed as colon length at 50 mg/kg, ig administered via gavage once a day for 14 consecutive days starting from second day post DSS challenge (reference value: 5.93 to 7.1 cm). The format is functional.
A short description of data set [26]: Toxicity in po dosed mouse. In kind it is organism-based. The following applies: in vivo.
The subject of data set [27] is Mus musculus. As to the kind of experiment: Anti-inflammatory activity against DSS-induced ulcerative colitis C57BL/6 mouse model assessed as mild cellular infiltration in colon at 50 mg/kg, ig administered via gavage once a day for 14 consecutive days starting from second day post DSS challenge by H and E staining based analysis. The format is functional, organism-based.

The nature of data set [28]: Ratio of compound t1/2 to myricetin t1/2 in Wistar rat plasma at 3 uM measured up to 180 mins by LC-MS/MS analysis. In kind it is ADME, cell-free. The settings on record: 3 h.
Data set [29] is described as follows: Ratio of compound solubility to myricetin solubility in water after 24 hrs by HPLC analysis. The following applies: buffer. In kind it is physicochemical.
Data set [30] is described as follows: Ratio of compound t1/2 to myricetin t1/2 in Wistar rat liver microsomes at 1 uM measured up to 120 mins by LC-MS/MS analysis. In kind it is ADME, Microsome. The following applies: 2 h.
Data set [31] deals with Mus musculus. As to the kind of experiment: Anti-inflammatory activity against DSS-induced ulcerative colitis C57BL/6 mouse model assessed as colon length at 100 mg/kg, ig administered for 7 consecutive days followed by 7 days treatment with drinking water followed by three additional DSS treatment cycles (reference value: 5.93 +/- 0.52 cm). The format is functional.

≈ marks a conversion by molar mass, not a printed value. Calls of active or inactive are those of the source. The rule behind the calls is not given here.

As for `CC(=O)OC[C@H]1O[C@@H](O[C@H]2[C@H](OC(C)=O)[C@@H](OC(C)=O)[C@H](Oc3c(-c4cc(OCc5ccccc5)c(OCc5ccccc5)c(OCc5ccccc5)c4)oc4cc(OCc5ccccc5)cc(O)c4c3=O)O[C@@H]2COC(C)=O)[C@H](OC(C)=O)[C@@H](OC(C)=O)[C@H]1OC(C)=O`, the solubility in data set [1] was under 0.1 µg/mL. Moreover, the result in the data set with Mus musculus [2] was Active.
On to `O=c1c(O)c(-c2cc(O)c(O)c(O)c2)oc2cc(O)cc(O)c12` [MYRICETIN], for which the remaining at 20 min, 3 µM in data set [3] stood at 62.1%. In addition, the remaining at 5 min, 3 µM in data set [4] was 98.1%. The same compound displayed a half-life at 3 µM in data set [5] of 0.234 h. For the same compound, in [6], the remaining at 1.5 h, 1 µM is 3.32%. The remaining at 5 min, 1 µM in [7] was 81.3%. For the same compound, the concentration in solution in [1] (solubility at 24 h) was 14 µg/mL (≈ 44 µM). The k el at 2 h, 1 µM in [8] was 0.0005 s⁻¹. For the same compound, the remaining at 2 h, 3 µM in [9] is 1.23%. In addition, in data set [10], the remaining at 3 h, 3 µM was 0.53%. Further, the k el at 3 h, 3 µM in [11] is 0.000833 s⁻¹. Besides, the remaining at 2 h, 1 µM in data set [12] stood at 1.9%. Further, in [13], the remaining at 10 min, 1 µM is 55.9%. In addition, the remaining at 1.5 h, 3 µM in [14] is 0.96%. Besides, the Activity with Mus musculus [15] was determined as 6.55 cm. The remaining at 10 min, 3 µM in [16] was 89.2%. Further, the remaining at 40 min, 1 µM in data set [17] turned out to be 8.01%. The remaining at 1 h, 3 µM in [18] amounted to 5.81%. Also, the remaining at 20 min, 1 µM in [19] worked out at 31.6%. In addition, in data set [20], the remaining at 1 h, 1 µM amounted to 4.85%. Moreover, the remaining at 0.5 h, 1 µM in data set [21] is 18.1%. This compound also came in with a t1/2 in data set [22] of 0.3397 h. In addition, in [23], the remaining at 40 min, 3 µM came out at 19%.
As for `O=c1c(O[C@@H]2O[C@H](CO)[C@@H](O[C@@H]3O[C@H](CO)[C@H](O)[C@H](O)[C@H]3O)[C@H](O)[C@H]2O)c(-c2cc(O)c(O)c(O)c2)oc2cc([O-])cc(O)c12.[Na+]`, the remaining at 20 min, 3 µM in [3] was found to be 79.8%. Besides, the remaining at 5 min, 3 µM in data set [4] is 99.7%. Moreover, in data set [5], the half-life at 3 µM was 2.42 h. For the same compound, the remaining at 1.5 h, 1 µM in data set [6] was 78.1%. Moreover, in [7], the remaining at 5 min, 1 µM was determined as 96.6%. The same compound returned a solubility at 24 h in data set [1] of over 100000 µg/mL. In the data set on Mus musculus [24], the inhibition entry is “Active”. Also, the Activity in the data set on Mus musculus [25] was 8.11 - 10.6 cm. In addition, in data set [8], the k el at 2 h, 1 µM was 0.000167 s⁻¹. For the same compound, the remaining at 2 h, 3 µM in [9] stood at 55%. Also, in data set [26], the LD50 is over 5000 mg/kg. The remaining at 3 h, 3 µM in data set [10] was 58.4%. Also, the result in the data set with Mus musculus [27] was Active. The k el at 3 h, 3 µM in data set [11] was 0.000167 s⁻¹. Also, the remaining at 2 h, 1 µM in data set [12] was 76.1%. Moreover, the remaining at 10 min, 1 µM in data set [13] worked out at 89.7%. In [14], the remaining at 1.5 h, 3 µM turned out to be 67.8%. Moreover, the values for the Ratio in data set [28], in [29] and in data set [30] were 10, over 7000 and 20, respectively. For the same compound, the remaining at 10 min, 3 µM in data set [16] is 88.9%. The remaining at 40 min, 1 µM in [17] turned out to be 87.5%. Moreover, in [18], the remaining at 1 h, 3 µM is 67.7%. The remaining at 20 min, 1 µM in [19] worked out at 82.5%. For the same compound, in [20], the remaining at 1 h, 1 µM was determined as 83.5%. Further, the remaining at 0.5 h, 1 µM in data set [21] turned out to be 87.2%. In [22], this compound returned a t1/2 of 6.8098 h. The remaining at 40 min, 3 µM in [23] came to 82.4%.
Turning to `CC(=O)OC[C@H]1O[C@@H](O[C@H]2[C@H](OC(C)=O)[C@@H](OC(C)=O)[C@H](Oc3c(-c4cc(O)c(O)c(O)c4)oc4cc(O)cc(O)c4c3=O)O[C@@H]2COC(C)=O)[C@H](OC(C)=O)[C@@H](OC(C)=O)[C@H]1OC(C)=O`, the solubility at 24 h in [1] was 1390 µg/mL (≈ 1480 µM). The result in the data set with Mus musculus [2] was Active.
Turning to `Nc1ccc(O)c(C(=O)O)c1` [MESALAMINE], in the data set with Mus musculus [31], the Activity is given as 7.15 cm.
With `O=C(Oc1cc(OC(=O)c2ccccc2O)c2c(=O)c(OC(=O)c3ccccc3O)c(-c3cc(OC(=O)c4ccccc4O)c(OC(=O)c4ccccc4O)c(OC(=O)c4ccccc4O)c3)oc2c1)c1ccccc1O`, in data set [1], the solubility is under 0.02 µg/mL. Further, in the data set with Mus musculus [2], the outcome was Active.
On to `O=C(Oc1c(-c2cc(O)c(O)c(O)c2)oc2cc(O)cc(OC(=O)c3ccccc3O)c2c1=O)c1ccccc1O`, for which the solubility in [1] is under 0.1 µg/mL. In addition, in the data set on Mus musculus [2], the result was Active.
